According to patent US10294202B2, “Pyrrolidinones as herbicides” (FMC Corporation, priority 2013, dated 2019):

Assays:
[1] = test system: corn; experiment: Test C pre-/postemergence herbicide test; assay type: in vivo, Zea mays
Method in brief: (§1)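 Test compounds, formulated in a surfactant-containing non-phytotoxic solvent blend, are applied to seeded loam/sand soil (preemergence) and to young plants at the 1- to 4-leaf stage in peat-based medium (postemergence). Plants stay 13 to 15 days under greenhouse conditions, then are scored visually relative to controls, 0 = no effect, 100 = complete control.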

[2] = test system: velvetleaf; experiment: Test C pre-/postemergence herbicide test; assay type: in vivo, Abutilon theophrasti
Method in brief: as §1

[3] = test system: giant foxtail; experiment: Test A pre-/postemergence herbicide test; assay type: in vivo, Setaria faberii
Method in brief: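 Planted in loam–sand blend; treated the same day preemergence by directed soil spray, while separately grown plants at one- to two-leaf stage got postemergence spray. Compared visually with untreated controls after approximately 10 days; 100 means complete control.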

[4] = test system: crabgrass, large; experiment: Test C pre-/postemergence herbicide test; assay type: in vivo, Digitaria sanguinalis
Method in brief: as §1

[5] = test system: pigweed; experiment: Test C pre-/postemergence herbicide test; assay type: in vivo, Amaranthus retroflexus
Text: (§2) Seeds of plant species selected from blackgrass (Alopecurus myosuroides), ryegrass, Italian (Italian ryegrass, Lolium multiflorum), wheat (winter wheat, Triticum aestivum), galium (catchweed bedstraw, Galium aparine), corn (Zea mays), crabgrass, large (large crabgrass, Digitaria sanguinalis), foxtail, giant (giant foxtail, Setaria faberii), johnsongrass (Sorghum halepense), lambsquarters (Chenopodium album), morningglory (Ipomoea coccinea), nutsedge, yellow (yellow nutsedge, Cyperus esculentus), pigweed (Amaranthus retroflexus), ragweed (common ragweed, Ambrosia elatior), soybean (Glycine max), barnyardgrass (Echinochloa crus-galli), oilseed rape (Brassica napus), waterhemp (common waterhemp, Amaranthus rudis), kochia (Kochia scoparia), oat, wild (wild oat, Avena fatua), surinam grass (Brachiaria decumbens), foxtail, green (green foxtail, Setaria viridis), goosegrass (Eleusine indica), bromegrass, downy (downy bromegrass, Bromus tectorum), nightshade (eastern black nightshade, Solanum ptycanthum), cocklebur (common cocklebur, Xanthium strumarium), cupgrass, woolly (woolly cupgrass, Eriochloa villosa), bermudagrass (Cynodon dactylon), sunflower, (common oilseed sunflower, Helianthus annuus), Russian thistle (Salsola kali) and velvetleaf (Abutilon theophrasti) were planted into a blend of loam soil and sand and treated preemergence with test chemicals formulated in a non-phytotoxic solvent mixture which included a surfactant. At the same time, plants selected from these crop and weed species and also barley (winter barley, Hordeum vulgare), […]), chickweed (common chickweed, Stellaria media), deadnettle (henbit deadnettle, Lamium amplexicaule), and canarygrass (littleseed canarygrass, Phalaris minor) were planted in pots containing Redi-Earth® planting medium (Scotts Company, 14111 Scottslawn Road, Marysville, Ohio 43041) comprising spaghnum peat moss, vermiculite, wetting agent and starter nutrients and treated with postemergence applications of test chemicals formulated in the same manner. Plants ranged in height from 2 to 18 cm (1- to 4-leaf stage) for postemergence treatments. Treated plants and controls were maintained in a greenhouse for 13 to 15 days, after which time all species were compared to controls and visually evaluated. Plant response ratings, summarized in Table C, are based on a scale of 0 to 100 where 0 is no effect and 100 is complete control. A dash (-) response means no test result.

[6] = test system: barnyardgrass; experiment: Test B flooded paddy test; assay type: in vivo, Echinochloa crus-galli; conditions: Flood, scale of 0 to 100 where 0 is no effect and 100 is complete control
Method in brief: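 Treatment was made at the 2-leaf stage by dosing the standing floodwater, kept 3 cm above soil level for the whole test. Greenhouse exposure lasted 13 to 15 days. Response is a visual percent rating relative to controls, where a dash indicates no test result.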

[7] = test system: foxtail, giant; experiment: Test C pre-/postemergence herbicide test; assay type: in vivo, Setaria faberii
Text: as §2

[8] = Preemergence, 62 g ai/ha, scale 0 to 100 (0 no effect, 100 complete control)
[9] = Preemergence, 125 g ai/ha, scale 0 to 100
[10] = Preemergence, 31 g ai/ha, scale 0 to 100
[11] = Postemergence, 500 g ai/ha, 0 to 100 scale (0 no effect, 100 complete control)
[12] = Postemergence, 16 g ai/ha, scale 0 to 100 (0 no effect, 100 complete control)
[13] = Postemergence, 31 g ai/ha, scale 0 (no effect) to 100 (complete control)
[14] = Postemergence, 62 g ai/ha, scale 0 to 100 (0 no effect, 100 complete control)
[15] = Postemergence, 125 g ai/ha, scale 0 to 100 (0 no effect, 100 complete control)
[16] = Preemergence, 62 g ai/ha, scale 0 to 100
[17] = Preemergence, 125 g ai/ha, scale 0 to 100 (0 no effect, 100 complete control)
[18] = Preemergence, 16 g ai/ha, scale 0 to 100
[19] = Preemergence, 31 g ai/ha, scale 0 to 100 (0 no effect, 100 complete control)

With `O=C1NCC(c2ccc(OC(F)F)cc2)C1C(=O)Nc1cccc(F)c1F` (racemic) [Compound 350] the “Corn plant response rating” value [1, 8] was 0, the “Plant response rating, Corn” value [1, 9] was 5 and the “Plant response rating (scale of 0 to 100), Corn” value ([1]; Preemergence, 250 g ai/ha) was 40. The “Plant response rating, Corn” value [1, 10] was 0, the “Velvetleaf plant response rating” value [2, 8] was 0 and the “Plant response rating, Velvetleaf” value [2, 9] was 0. For the same molecule, the “Plant response rating, Velvetleaf” value [2, 10] was 0, the “Plant response rating, Foxtail, Giant” value ([3]; Postemergence, 125 g ai/ha, visual rating on 0 to 100 scale (0 no effect, 100 complete control), approx. 10 days) was 80 and the “Plant response rating, Foxtail, Giant” value [3, 11] was 90. For the same molecule, the “Plant response rating, Foxtail, Giant” value ([3]; Preemergence, 125 g ai/ha, 0 to 100 scale where 0 is no effect and 100 is complete control) was 90, the “Foxtail, Giant plant response rating” value ([3]; Preemergence, 500 g ai/ha, visual rating on 0 to 100 scale (0 no effect, 100 complete control)) was 90 and the “Crabgrass, Large plant response rating” value [4, 8] was 90. The “Plant response rating, Crabgrass, Large” value [4, 9] was 90, the “Plant response rating (scale of 0 to 100), Crabgrass, Large” value ([4]; Preemergence, 250 g ai/ha) was 90 and the “Plant response rating, Crabgrass, Large” value [4, 10] was 90. The “Pigweed plant response rating” value [5, 8] was 10, the “Plant response rating, Pigweed” value [5, 9] was 80 and the “Plant response rating, Pigweed” value [5, 10] was 0. For the same molecule, the “Plant response rating, Barnyardgrass” value ([6]; 500 g ai/ha) was 60, the “Foxtail, Giant plant response rating” value [7, 8] was 90 and the “Plant response rating, Foxtail, Giant” value [7, 9] was 90. The “Plant response rating (scale of 0 to 100), Foxtail, Giant” value ([7]; Preemergence, 250 g ai/ha) was 90 and the “Plant response rating, Foxtail, Giant” value [7, 10] was 85.

`O=C1NCC(c2cc(F)c(F)c(F)c2)C1C(=O)Nc1cccc(F)c1F` (stereo not drawn) [Compound 48] was tested, and the “Plant response rating, Corn” value [1, 12] was 0, the “Plant response rating, Corn” value [1, 13] was 5 and the “Plant response rating, Corn” value [1, 14] was 5. For the same molecule, the “Plant response rating, Corn” value [1, 15] was 5, the “Plant response rating, Corn” value [1, 16] was 20 and the “Plant response rating, Corn” value [1, 17] was 20. The “Plant response rating, Corn” value [1, 18] was 0, the “Corn plant response rating” value [1, 19] was 0 and the “Plant response rating, Velvetleaf” value [2, 12] was 0. The “Plant response rating, Velvetleaf” value [2, 13] was 0, the “Plant response rating, Velvetleaf” value [2, 14] was 15 and the “Plant response rating, Velvetleaf” value [2, 15] was 35. For the same molecule, the “Plant response rating, Velvetleaf” value [2, 16] was 0, the “Plant response rating, Velvetleaf” value [2, 17] was 0 and the “Plant response rating, Velvetleaf” value [2, 18] was 0. For the same molecule, the “Plant response rating, Foxtail, Giant” value ([3]; Postemergence, 125 g ai/ha, 0 to 100 scale, 0 no effect, 100 complete control) was 80, the “Plant response rating, Foxtail, Giant” value [3, 11] was 80 and the “Foxtail, Giant plant response rating” value ([3]; Preemergence, 125 g ai/ha, visual rating on 0 to 100 scale (0 no effect, 100 complete control)) was 80. For the same molecule, the “Plant response rating, Foxtail, Giant” value ([3]; preemergence, 500 g ai/ha, 0 to 100 scale) was 90, the “Plant response rating, Crabgrass, Large” value [4, 12] was 20 and the “Plant response rating, Crabgrass, Large” value [4, 13] was 40. The “Plant response rating, Crabgrass, Large” value [4, 14] was 65, the “Plant response rating, Crabgrass, Large” value [4, 15] was 75 and the “Plant response rating, Crabgrass, Large” value [4, 16] was 90. For the same molecule, the “Plant response rating, Crabgrass, Large” value [4, 17] was 95, the “Plant response rating, Crabgrass, Large” value [4, 18] was 75 and the “Crabgrass, Large plant response rating” value [4, 19] was 85. For the same molecule, the “Plant response rating, Pigweed” value [5, 12] was 10, the “Plant response rating, Pigweed” value [5, 13] was 25 and the “Plant response rating, Pigweed” value [5, 14] was 30. For the same molecule, the “Plant response rating, Pigweed” value [5, 15] was 40, the “Plant response rating, Pigweed” value [5, 16] was 0 and the “Plant response rating, Pigweed” value [5, 17] was 0. For the same molecule, the “Plant response rating, Pigweed” value [5, 18] was 0, the “Plant response rating, Barnyardgrass” value ([6]; 250 g ai/ha) was 40 and the “Plant response rating, Foxtail, Giant” value [7, 12] was 0. For the same molecule, the “Plant response rating, Foxtail, Giant” value [7, 13] was 5, the “Plant response rating, Foxtail, Giant” value [7, 14] was 20 and the “Plant response rating, Foxtail, Giant” value [7, 15] was 40. The “Plant response rating, Foxtail, Giant” value [7, 16] was 85, the “Plant response rating, Foxtail, Giant” value [7, 17] was 95 and the “Plant response rating, Foxtail, Giant” value [7, 18] was 40. The “Foxtail, Giant plant response rating” value [7, 19] was 80.
